Test results as given in US20070142462A1, “Method of Treating Cancer” (The University of Utah, priority 2000, published 2007).

Tests used:
M1619 cells = assay: DNA cell cycle analysis by flow cytometry; format: cell-based, human; conditions: 3,000 U/ml catalase, 24 hours
Protocol: DNA Cell Cycle Measurements. To study the effect of antioxidant treatments on the DNA cell cycle, cells were grown to near confluence in 25 cm^2 plastic flasks and treated for 24 hours. Cells were typsinized, washed twice in cold DPBS with 1 mM EDTA and 1% bovine serum albumin (BSA), fixed 30 min in ice-cold 70% ethanol, and stained by incubation for 30 min at 37° C. in a 10 μg/ml solution of propidium iodide in DPBS and 1 mg/ml RNase A. DNA cell cycle measurements were made using a FACStar^PLUS Flow Cytometer (Becton-Dickenson, San Jose, Calif.).
Near confluent monolayers of M1619 cells were incubated in RPMI 1640 and 10% FBS in the presence or absence of 3,000 U/ml catalase. After 24 hours, cells were harvested, ethanol-fixed, permeabilized with proteinase K, stained with propidium iodide and subjected to DNA cell cycle analysis. Whereas a large fraction (30.2%) of untreated cells (FIG. 6A) were tetraploid, only 12.8% of catalase-treated cells (FIG. 6B) were tetraploid. […] G2-M was hidden by tetraploid G0-G1 or by debris and could not be analyzed.

[1] = tested on: cyclin B1 and p34-cdc2 kinase; assay: Immunoblot of cyclins, cyclin-associated kinases, inhibitors, p53; format: cell-based, human; conditions: M1619
Protocol: The effect of antioxidants on expression of cell cyclins, cyclin-associated kinases, cell cycle inhibitors and IκBα was studied by incubating near confluent cell cultures with antioxidant treatments for 15 min-48 hours. Cells were lysed and protein levels were measured by immunoblot assay as described below. In other experiments, the ratio of phosphorylated-IκBα to total IκBα was determined by harvest of cytosolic protein 24 hours after treating cultures with 3,000 U/ml catalase.
Immunoassay for Proteins. Cells were lysed and proteins were isolated and quantitated by immunoassay as previously detailed, using 2 μg/ml of primary rabbit polyclonal antibodies against human p53, the cyclins D1, E, A and B1, the cyclin-associated kinases cdk2 and cdc2, the cyclin kinase inhibitors p21^WAF1/Cip1 and p27, and peroxidase-labeled donkey polyclonal anti-rabbit IgG. […] Cells were placed on ice, washed twice with cold DPBS, scraped into 0.5 ml boiling buffer (10% [vol/vol] glycerol and 2% [wt/vol] sodium dodecyl sulfate [SDS] in 83 mM Tris, pH 6.8) and sheared by four passages through a pipette. Aliquots were removed for protein determination, using the BCA protein assay (Pierce). […] Immunoblots were rinsed again as above and detected using an enhanced chemiluminescence method (ECL Western blotting detection system, Amersham Life Science, Buckinghamshire, England) and autoradiography. […]

Substance: Catalase
- fraction of cells tetraploid (M1619 cells; untreated 30.2%): 12.8%
- total percentage of cells in S-phase (M1619 cells; untreated 41.2%): 56.7%
- expression of cyclin B1 and its associated kinase p34-cdc2 ([1]; 3,000 U/ml catalase): significant decrease
- protein levels of cyclins D1, E, A, cdk2, p53, p21WAF1/Cip1, p27 ([1]; catalase-treated vs controls, data not shown): did not decrease
